Results from patent US7923465B2, “Cannabinoid receptor ligands, pharmaceutical compositions containing them, and process for their preparation” (priority 2005, dated 2011).

What was measured:
hCB1 = hCB1 (Homo sapiens, UniProt P21554); test: In vitro binding assay using hCB1-CHO membranes, [3H]-CP-55,940 displacement (Protocol II); design: expressed in transfected cells; host or cells: CHO (hCB1-CHO, generated in-house)
Experimental: II. Protocol for In Vitro Assay Using hCB1-CHO Membranes
The reaction was set up in a total volume of 200 μl in PEI (Poly(ethyleneimine)) (0.2%) precoated Millipore GFB (Glass Fibre-B) filter plates. 1 mM stocks of test compounds were prepared in DMSO and tested at a final concentration of 300 nM. The non-specific binding was determined by 0.5 μM CP-55, 940. […] The assay mixture (with or without the test compound) was incubated at 37° C. for 1 hour. The reaction was stopped by rapid filtration under vacuum and the radioactivity on the filters was measured by liquid scintillation counting.

hCB2 = hCB2 (Homo sapiens, UniProt P34972); test: In vitro binding assay using hCB2-CHO membranes, [3H]-CP-55,940 displacement (Protocol IV); design: expressed in transfected cells; host or cells: CHO (hCB2-CHO, generated in-house); conditions: hCB2-CHO membranes, [3H]-CP-55,940 displacement; for inhibition at 0.3 µM: 1 h, read-out: % Displacement Protocol IV
How it was run: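 Displacement of [3H]-CP-55,940 (0.75 nM) from membranes of CHO cells expressing human CB2 (25-50 μg) was measured in Tris-BSA buffer pH 7.4 with 5 mM MgCl2, 1 mM EDTA, 0.1% BSA, 1 h at 30 °C. Test compounds were at 300 nM final; nonspecific binding defined with 0.5 μM CP-55,940. Values are % displacement of specific binding.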

CB1 [1] = biological target: T1, CB1 (Rattus norvegicus, UniProt P20272); test: GTPγS binding assay, CB1 functional assay in rat cerebellar membrane (Protocol VIII); type: biochemical; design: 10 μg rat cerebellum membrane; from tissue; host or cells: rat cerebellum membrane, prepared in-house; conditions: for activation at 1 µM: tested at 1 uM; for inhibition at 1 µM: tested at 1 uM in presence of 1 μM WIN 55,212-2
Experimental: VIII. Protocol for GTPγS Binding Assay (CB1 Functional Assay in Rat Cerebellar Membrane)
In this GTPγS binding assay, total, basal and nonspecific binding were determined. See Griffin G., Atkinson P. J., Showalter V. M., Martin B. R. and Abood M. E., “Evaluation of cannabinoid receptor agonists and antagonists using the Guanosine-5′-O-(3-(^35S)thio)-triphosphate binding assay in rat cerebellar membranes,” J Pharmacol Exp Ther 285: 553-560, 1998. Three wells for total binding, three wells for basal binding, and three wells for nonspecific binding at 0.2 nM concentration of radioligand were used. Basal binding was defined by 50 μM GDP (Guanosine diphosphate) and non-specific binding was defined by 10 μM unlabeled GTPγS. 10 μg rat cerebellum membrane, 50 μM of GDP, WIN-55212-2 or test compound (1 μM or 300 nM), 10 μM unlabeled GTPγs, and 0.2 nM of [^35S]GTPγS were added into a 96 well plate and the final volume of the reaction mixture was made with GTPγS buffer (50 mM Tris, 3 mM anhydrous MgCl2, 0.2 mM EGTA and 100 mM NaCl pH 7.4) to 200 μl. The plates were incubated at 30° C. for 1 hour. Then the reaction was stopped by filtration using a Whatman GF/B-96 microfilter plate. Three washings were given using Tris-HCl. The radioactivity bound to the brain membrane was retained on the filter disks to which scintillation fluid was added (Microscint PS). Then plates were read for radioactive counts using a Beta Liquid Scintillation Counter (Packard Instruments, Ill., USA).
The rat cerebellar brain membrane was prepared as follow: • 1. Sacrifice the rat and take out the whole brain and separate cerebellum as fast as possible and keep it on ice. • 2. Take the weight of the cerebellum and homogenize in 30 ml of homogenizing buffer (50 mM Tris-HCL containing 1 mM EDTA and 5% sucrose, pH 7.5) using homogenizer in cold condition. • 3. Centrifuge the homogenized cerebellum at 18000 rpm (38000 g) for 15 min at 4° C. • 4. Resuspend the pellet in 5 ml 50 mM Tris-HCL containing 1 mM EDTA and keep it on ice for 30 min. • 5. Pass the membrane through insulin syringe to ensure uniform suspension. • 6. Centrifuge the membrane at 18000 rpm at 4° C. for 20 min. • 7. Reconstitute the pellet in 3 ml of GTPγS buffer and estimate the protein by BCA assay and store the membrane in aliquots of 1000 μg of protein. CB1 Agonist and Antagonist Activity Screening Assay
The test compounds were screened at a final concentration of 1 μM or 300 nM in the absence and presence of 1 μM of WIN 55, 212-2 in the same manner as described in the GTPγS binding assay.
An agonist will stimulate the GTPγS binding over the basal.
An inverse agonist will decrease the basal GTPγS binding and/or produce more than 100% inhibition of the agonist (WIN-55212-2) induced stimulation.
The percent stimulation of GTPγS binding by each test compound at 1 μM or 300 nM concentration in the absence and presence of 1 μM WIN 55, 212-2 was calculated by comparing it with basal specific bound (Basal binding—Non Specific binding) values.

CB1 [2] = biological target: T1, CB1; test: Rat CB1 receptor binding using brain membrane, [3H]SR141716A displacement (Protocol I); design: CB1 receptor present in a rat brain membrane preparation; from tissue; host or cells: rat brain membrane; inhibition: dose or concentration left out as unconfirmed; conditions: 1 h; rat brain membrane, [3H]SR141716A displacement; read-out: % Displacement Protocol I
[3] = 1 h, GTPγS binding over basal, rat cerebellar membrane, read-out: Per Se % Stimulation
[4] = GTPγS binding, read-out: % Inhibition of WIN-55212-2 induced stimulation

Sequence of hCB2 (P34972 whole entry): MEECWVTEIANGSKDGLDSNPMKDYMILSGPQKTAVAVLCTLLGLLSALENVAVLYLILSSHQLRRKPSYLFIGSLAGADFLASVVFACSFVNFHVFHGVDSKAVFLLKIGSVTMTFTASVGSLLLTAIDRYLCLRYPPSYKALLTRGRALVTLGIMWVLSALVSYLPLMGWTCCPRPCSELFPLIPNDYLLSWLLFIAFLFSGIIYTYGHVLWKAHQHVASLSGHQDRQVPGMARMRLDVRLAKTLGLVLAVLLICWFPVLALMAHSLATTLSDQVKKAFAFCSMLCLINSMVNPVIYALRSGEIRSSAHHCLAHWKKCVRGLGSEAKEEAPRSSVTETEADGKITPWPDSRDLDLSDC
T1 sequence (P20272 whole entry): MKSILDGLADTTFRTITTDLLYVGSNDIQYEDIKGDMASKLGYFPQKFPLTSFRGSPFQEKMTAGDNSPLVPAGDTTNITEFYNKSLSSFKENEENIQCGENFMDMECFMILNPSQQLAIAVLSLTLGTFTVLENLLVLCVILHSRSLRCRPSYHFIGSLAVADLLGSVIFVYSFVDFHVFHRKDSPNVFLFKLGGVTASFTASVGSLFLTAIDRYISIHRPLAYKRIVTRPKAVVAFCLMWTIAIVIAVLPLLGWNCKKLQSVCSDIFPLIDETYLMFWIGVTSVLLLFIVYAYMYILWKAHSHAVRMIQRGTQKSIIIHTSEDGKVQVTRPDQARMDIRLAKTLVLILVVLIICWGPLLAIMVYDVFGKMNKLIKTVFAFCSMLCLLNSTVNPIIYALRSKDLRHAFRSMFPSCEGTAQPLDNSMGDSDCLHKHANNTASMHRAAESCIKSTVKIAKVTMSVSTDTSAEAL
Sequence of hCB1 (P21554 whole entry): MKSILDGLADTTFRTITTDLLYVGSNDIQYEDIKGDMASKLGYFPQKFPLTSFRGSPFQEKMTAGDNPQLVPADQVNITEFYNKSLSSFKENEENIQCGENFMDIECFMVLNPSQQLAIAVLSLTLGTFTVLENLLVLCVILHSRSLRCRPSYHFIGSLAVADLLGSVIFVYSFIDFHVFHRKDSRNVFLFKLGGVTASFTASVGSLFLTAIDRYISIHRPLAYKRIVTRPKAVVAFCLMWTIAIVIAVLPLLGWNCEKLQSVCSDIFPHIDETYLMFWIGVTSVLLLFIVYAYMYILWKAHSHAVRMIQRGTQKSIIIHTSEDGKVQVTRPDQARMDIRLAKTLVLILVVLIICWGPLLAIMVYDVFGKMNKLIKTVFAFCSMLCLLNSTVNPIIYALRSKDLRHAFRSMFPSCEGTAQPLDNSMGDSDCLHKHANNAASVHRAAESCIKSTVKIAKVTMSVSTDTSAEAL

SMILES	% Displacement Protocol II (hCB1) [%]	% Displacement Protocol IV (hCB2) [%]	melting point [°C]	inhibition at 0.3 µM (hCB2) [%]	inhibition (CB1 [2]) [%]	activation at 1 µM (CB1 [1]; [3]) [%]	inhibition at 1 µM (CB1 [1]; [4]) [%]	also measured
CC1(C)C2CC[C@@](C)(C2)C1NC(=O)c1nn(-c2ccc(Cl)cc2)c2c1C1CC3CC(C1)CC2C3 (stereo partly drawn) [Example 110, N(7)-(1S,2endo-1,3,3-Trimethyl-bicyclo[2.2.1]hept-2-yl)-5-(4-chlorophenyl)-5,6-diazatetracyclo[7.3.1.1^3,11.0^4,8]tetradeca-4(8)-6-diene-7-carboxamide]	37.69	60.7						
C[C@@H](NC(=O)c1nn(-c2ccc(Cl)cc2)c2c1C1CC3CC(C1)CC2C3)c1ccccc1 [Example 118]	45.43	61.23						
O=C(NC12CC3CC(CC(C3)C1)C2)c1nn(-c2ccc(F)cc2F)c2c1C1CC3CC(C1)CC2C3 [Example 144, N(7)-(Adamantan-1-yl)-5-(2,4-difluorophenyl)-5,6-diazatetracyclo[7.3.1.1^3,11.0^4,8]tetradeca-4(8)-6-diene-7-carboxamide]	40.13	69.24						
CC1(C)[C@@H]2CC[C@@](C)(C2)[C@@H]1NC(=O)c1nn(-c2ccc(F)cc2F)c2c1C1CC3CC(C1)CC2C3 [Example 145, N(7)-(1S,2endo-1,3,3-Trimethyl-bicyclo[2.2.1]hept-2-yl)-5-(2,4-difluorophenyl)-5,6-diazatetracyclo[7.3.1.1^3,11.0^4,8]tetradeca-4(8)-6-diene-7-carboxamide]	54.01	75.88						
C[C@H](NC(=O)c1nn(-c2ccc(F)cc2F)c2c1C1CC3CC(C1)CC2C3)c1ccccc1 [Example 146]	60.51	68.16						
COC(=O)[C@H](NC(=O)c1nn(-c2ccc(F)cc2F)c2c1C1CC3CC(C1)CC2C3)c1ccccc1 [Example 154, Methyl(2R)-2-[7-(2,4-difluorophenyl)-6,7-diazatetracyclo[7.3.1.1^3,11.0^4,8]tetradeca-4(8),5-dien-5-ylcarboxamido]-2-phenylethanoate]	96.1	70.19						
COC(=O)[C@@H](NC(=O)c1nn(-c2ccc(F)cc2F)c2c1C1CC3CC(C1)CC2C3)c1ccccc1 [Example 155, Methyl(2S)-2-[7-(2,4-difluorophenyl)-6,7-diazatetracyclo[7.3.1.1^3,11.0^4,8]tetradeca-4(8),5-dien-5-ylcarboxamido]-2-phenylethanoate]	96.65	72.38						
Cc1ccc(-n2nc(C(=O)NCc3ccccc3Cl)c3c2C2CC4CC(CC3C4)C2)cc1 [Example 162, N(7)-(2-Chlorobenzyl)-5-(4-methylphenyl)-5,6-diazatetracyclo[7.3.1.1^3,11.0^4,8]tetradeca-4(8),6-diene-7-carboxamide]			127 to 130	33.8	38.9			activation at 0.3 µM (CB1 [1]; 1 h, GTPγS binding over basal, rat cerebellar membrane, tested at 300 nM, read-out: Per Se % Stimulation): -29.2%; inhibition at 0.3 µM (CB1 [1]; GTPγS binding, tested at 300 nM in presence of 1 μM WIN 55,212-2, read-out: % Inhibition of WIN-55212-2 induced stimulation): 72%
O=C(NCc1ccc(F)cc1)c1nn(-c2ccc(Cl)cc2Cl)c2c1C1CC3CC(C1)CC2C3 [Example 172, N(7)-(4-Fluorobenzyl)-5-(2,4-dichlorophenyl)-5,6-diazatetracyclo[7.3.1.1^3,11.0^4,8]tetradeca-4(8),6-diene-7-carboxamide]			68 to 70	25.1	59.2	-18.3	115	
O=C(NNc1ccccc1Cl)c1nn(-c2ccc(Cl)cc2Cl)c2c1C1CC3CC(C1)CC2C3 [Example 174, N(7)-(2-Chlorophenylamino)-5-(2,4-dichlorophenyl)-5,6-diazatetracyclo[7.3.1.1^3,11.0^4,8]tetradeca-4(8),6-diene-7-carboxamide]			110	22.5	76.4	-20.8	75.5	
O=C(NCCc1ccccc1)c1nn(-c2ccc(Cl)cc2Cl)c2c1C1CC3CC(C1)CC2C3 [Example 178, N(7)-(2-Phenylethyl)-5-(2,4-dichlorophenyl)-5,6-diazatetracyclo[7.3.1.1^3,11.0^4,8]tetradeca-4(8),6-diene-7-carboxamide]			63 to 66	6.04	47	-0.7	88	
O=C(Nc1cccc(Cl)c1)c1nn(-c2ccc(Cl)cc2)c2c1C1CCC2C1 (centres unmarked) [Example 215, N(3)-(3-Chorophenyl)-1-(4-chlorophenyl)-4,5,6,7-tetrahydro-1H-4,7-methano-indazole-3-carboxamide]	1.38							
O=C(NNc1cccc(F)c1)c1nn(-c2ccc(Cl)cc2)c2c1C1CCC2C1 (centres unmarked) [Example 233, N(3)-[(3-Fluorophenyl)amino]-1-(4-chlorophenyl)-4,5,6,7-tetrahydro-1H-4,7-methano-indazole-3-carboxamide]			199	46.2	73.2	-16.3	79.5	
O=C(NCc1ccc(F)cc1)c1nn(-c2ccc(Cl)cc2Cl)c2c1C1CCC2C1 (centres unmarked) [Example 246, N(3)-(4-Fluorobenzyl)-1-(2,4-dichlorophenyl)-4,5,6,7-tetrahydro-1H-4,7-methano-indazole-3-carboxamide]			106 to 108	30.4	46	0.7	98.9	
O=C(NNc1ccccc1Cl)c1nn(-c2ccc(F)cc2F)c2c1C1CCC2C1 (centres unmarked) [Example 286, N(3)-[(2-Chlorophenyl)amino]-1-(2,4-difluorophenyl)-4,5,6,7-tetrahydro-H-4,7-methano-indazole-3-carboxamide]	32.35							
C[C@H](NC(=O)c1n[nH]c2c1C1(c3ccc(F)cc3F)CCC2C1)c1ccccc1 (stereo partly drawn) [Example 292, N(3)-[S-(1-Phenylethyl)]-4-(2,4-difluorophenyl)-4,5,6,7-tetrahydro-1H-4,7-methano-indazole-3-carboxamide]	69.79							
